According to patent US8333987B2 (priority 2008, dated 2012):
Where two headings read alike, the source gives them in different places.

What was measured:
[1] = organic solvents administered parenterally; cited from earlier work
Nourin [2] = experiment: Chemotactic activity of Nourin in supernatants of H1N1 (PR8) infected MDCK cells; type: cell-based; conditions: 5×10^−6 M Nourexin-4, all time points 1-24 hours, FIG. 5
Nourin [3] = experiment: Chemotactic activity in serum of H1N1 (WSN) influenza infected mice, human PMNs as indicator cells; type: cell-based, mouse; conditions: 5×10^−6 M Nourexin-4; serum diluted 1/7, 6 hours post H1N1 (WSN) infection; FIG. 6
Nourin [4] = experiment: Neutrophil chemotaxis induced by Nourin; type: cell-based; conditions: data not provided in graphical form
[5] = test system: human peripheral neutrophils; conditions: FIG. 3
Description: (§1) For these studies, a standard Neuroprobe chemotaxis system (Gaithersburg, Md.) and human peripheral neutrophils as indicator cells were used.

[6] = Water solubility of cyclocreatine; type: physicochemical; conditions: physiologically relevant zwitterion salt
Description: Therefore, sufficient drug is available in the gut lumen due to good solubility, but an absorptive transporter will be necessary to overcome the poor permeability characteristics of this compound. For effective therapy, it is necessary to deliver cyclocreatine effectively in sufficient quantities into the systemic blood stream. […] Moreover, the in vivo fate of a drug given by a particular administration route is determined by both the physicochemical properties of drug and the anatomical and physiological characteristics of the body. Most conventional drugs, once reaching the blood circulation, distribute freely throughout the body and show relatively even tissue distribution due to their low molecular weight.

[7] = test system: human peripheral neutrophils; conditions: FIG. 2
Description: as §1

C[S+](C)[O-] [DMSO, dimethylsulfoxide]
LD50 [1]: 5.1%

C/C=C/C[C@@H](C)[C@@H](O)[C@H]1C(=O)N[C@@H](CC)C(=O)N(C)CC(=O)N(C)[C@@H](CC(C)C)C(=O)N[C@@H](C(C)C)C(=O)N(C)[C@@H](CC(C)C)C(=O)N[C@@H](C)C(=O)N[C@H](C)C(=O)N(C)[C@@H](CC(C)C)C(=O)N(C)[C@@H](CC(C)C)C(=O)N(C)[C@H](C(C)C)C(=O)N1C [Nourexin-4, Cyclosporine H]
inhibition of chemotactic activity of H1N1 infected MDCK supernatant (Nourin [2]; 1/10 diluted supernatant): dramatic loss of chemotactic activity
inhibition of chemotactic activity of H1N1 infected MDCK supernatant (Nourin [2]; undiluted supernatant): dramatic loss of chemotactic activity
inhibition of virus induced LCF activity in mouse serum (Nourin [3]): majority of this virus induced LCF activity is clearly inhibited
inhibition of neutrophil chemotaxis induced by Nourin (Nourin [4]): significantly inhibited
inhibition of neutrophil chemotaxis induced by S. aureus-derived PSM3a ([5]; Nourexin-4 at 5×10^−4 M): completely blocked
inhibition of neutrophil chemotaxis induced by S. aureus-derived PSM3a ([5]; Nourexin-4 at 5×10^−5 M): partially blocked

NC1=NCCN1CC(=O)O [cyclocreatine]
water solubility [6]: relatively highly water-soluble

CCO [ethanol]
LD50 [1]: 21%

CC(O)CO (stereo not shown) [propylene glycol]
LD50 [1]: 5.7%

formyl-Methionine-Leucine-Phenylalanine [f-MLP]
neutrophil chemotactic activity induced in vitro [7]: strong neutrophil chemotactic activity

phenol-soluble modulin 3a peptide [PSM3a, reference compound]
neutrophil chemotactic activity induced in vitro [5]: strong neutrophil chemotactic activity

t-Boc-FLFLF [Nourexin-1]
inhibition of neutrophil chemotaxis induced by Nourin (Nourin [4]): significantly inhibited
